Laboratory results as given in PMC3284191 (Journal of Agricultural and Food Chemistry, 2012).

Target: β-galactosidase LacZ from L. bulgaricus (nontagged) (Lactobacillus delbrueckii, UniProt Q1G9Z4)
Test: inhibition of oNPG hydrolysis, nonlinear regression
Assay type: biochemical
Details: read-out: nontagged LacZ; substrate oNPG; 50 mM sodium phosphate, pH 6.5, 30 °C; competitive

Sequence of β-galactosidase LacZ from L. bulgaricus (nontagged) (Q1G9Z4 2-1008): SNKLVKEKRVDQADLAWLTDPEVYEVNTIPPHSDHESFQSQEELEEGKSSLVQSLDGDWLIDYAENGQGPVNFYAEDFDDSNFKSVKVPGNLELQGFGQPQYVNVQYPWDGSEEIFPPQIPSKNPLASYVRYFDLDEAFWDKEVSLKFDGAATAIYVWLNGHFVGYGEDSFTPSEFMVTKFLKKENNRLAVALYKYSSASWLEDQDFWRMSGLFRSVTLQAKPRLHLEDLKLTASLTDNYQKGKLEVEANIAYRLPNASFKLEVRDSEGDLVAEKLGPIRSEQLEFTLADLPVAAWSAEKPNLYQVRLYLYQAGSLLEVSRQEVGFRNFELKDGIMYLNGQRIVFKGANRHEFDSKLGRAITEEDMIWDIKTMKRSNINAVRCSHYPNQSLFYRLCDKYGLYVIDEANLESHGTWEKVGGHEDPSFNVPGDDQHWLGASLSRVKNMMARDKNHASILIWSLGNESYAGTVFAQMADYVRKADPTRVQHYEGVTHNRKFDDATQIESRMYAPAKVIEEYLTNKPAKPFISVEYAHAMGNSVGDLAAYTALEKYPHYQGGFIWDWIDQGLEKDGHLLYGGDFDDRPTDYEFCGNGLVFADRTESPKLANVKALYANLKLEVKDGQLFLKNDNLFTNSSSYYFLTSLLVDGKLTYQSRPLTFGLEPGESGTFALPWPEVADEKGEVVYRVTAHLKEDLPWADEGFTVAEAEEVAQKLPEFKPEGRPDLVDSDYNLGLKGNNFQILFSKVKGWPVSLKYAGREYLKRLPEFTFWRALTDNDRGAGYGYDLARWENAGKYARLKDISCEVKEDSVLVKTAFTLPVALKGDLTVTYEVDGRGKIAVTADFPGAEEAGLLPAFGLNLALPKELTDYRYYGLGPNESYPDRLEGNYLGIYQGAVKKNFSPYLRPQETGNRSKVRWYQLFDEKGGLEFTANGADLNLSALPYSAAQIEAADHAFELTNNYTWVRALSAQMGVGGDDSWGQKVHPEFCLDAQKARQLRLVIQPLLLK

- Ki: 9.52 ± 1.54 mM
Compound: OC[C@H]1OC(O)[C@H](O)[C@@H](O)[C@H]1O (stereo partly drawn) [D-galactose]
